Measured values published in US20100316609A1, “Conditionally Replicating Viruses for Cancer Therapy” (priority 2006, published 2010).

Assays:
human lung fibroblasts = experiment: HIV-1 RT based cellular dNTP assay; type: cell-based
Excerpt: A ^32P labeled 18-mer annealed to a 19-mer template was extended by HIV-1 RT with known amounts of TTP. Percent of the primer extension with each dNTP amount was plotted (B).
A highly sensitive dNTP assay capable of monitoring dNTP levels in primary cells has been described (Diamond et al., J. Biol. Chem. 279:51545-53 2004). It has been difficult to determine dNTP levels in terminally differentiated primary cells due to the lack of highly sensitive dNTP assays. […] This assay used a ^32P-labeled 18-mer primer annealed to a 19-mer template, allowing incorporation of one of four dNTPs, generating 19-mer products (FIG. 2A). Indeed, this assay is ˜250 times more sensitive than the HPLC based assay. With this assay, dNTP concentrations in primary human macrophages, CD4+ T cells, and human fibroblasts were determined (Table 3). This assay also allowed monitoring of fluctuations of cellular dNTP contents, in different cell types, or under different phases of the cell cycle or culture conditions. Primary cells such as human primary lung fibroblast cells (HFL culture with 10% serum) have 5-10 lower dNTP content than tumor cells such as PANC1 cells (Table 4). Treatment with deoxynucleoside (dNs) enhanced cellular dNTP content in human lung fibroblasts (cultured with 10% serum) by 80 fold (Table 4).

BALB/c mice = experiment: VPA effect on Ad-CMV-Luc gene expression in vivo; details: Ad-CMV-Luc intramuscular, VPA six days, biophotonic imaging
Experimental: In FIG. 6A luciferase-encoding adenovirus vector (Ad.CMV-Luc) was inoculated into the thigh muscle of BALB/c mice. These animals (3/group) were then treated with either VPA or with vehicle alone for six days, by twice-daily i.p. injection. Representative images obtained with the IVIS CCD camera at day 2 and 6 post Ad-infection are presented. In FIG. 6B the levels of adenovirally vectored luciferase gene expression in the mice shown in panel A were quantitated at day 2 and 6 post infection using the Living Image® 2.20.1 software (Xenogen, Alameda, Calif.).
[…] of a luciferase-expressing adenovirus vector (Ad-CMV-Luc) was inoculated into BALB/c mice, via an intramuscular route. These animals were then treated with either VPA or with vehicle alone for six days, and the expression of luciferase was analyzed over time using biophotonic imaging.

N2A neuroblastoma cells = experiment: VPA effect on Ad.CMV-LacZ gene expression in vitro; type: cell-based
Experimental: FIG. 5A is a graph showing N2A cells transduced by Ad.CMV-LacZ, and then exposed to varying concentrations of VPA (as indicated). Twenty-four hours later, LacZ expression was analyzed. FIG. 5B is a graph showing N2A cells cultured on poly-D-lysine coated 12-well plates in NB/B27 medium, and transduced with Ad.CMV-LacZ at a multiplicity of infection (MOI) of 10. Two hours thereafter, the culture medium was replaced with medium containing 1 mM VPA or vehicle (control). The medium was changed every 24-hours thereafter, and cell aliquots were harvested at the indicated time points (1, 3, 5, 7, 10 and 12 days post infection). LacZ expression was then measured in the lysates.
VPA enhanced virally-vectored gene expression, using a panel of gene delivery platforms that include recombinant, replication-defective type 5 adenovirus vectors. […] Similar effects were also observed in several primary cells transduced by Ad-CMV-LacZ (Fan, et al., J. Virol. Methods 125:23-33 (2005)).

Compound | enhancement of cellular dNTP content (human lung fibroblasts; human lung fibroblasts cultured with 10% serum) [fold] | [dNTP] (human lung fibroblasts; lung fibroblasts (+dN)) | [dNTP] relative to untreated lung fibroblasts (1x) (human lung fibroblasts; lung fibroblasts (+dN)) [x] | expression of luciferase compared to untreated mice (BALB/c mice) | reporter gene (LacZ) expression (N2A neuroblastoma cells; Ad-CMV-LacZ transduced N2A cells, varying VPA, FIG. 5A) | duration of increased expression of the delivered gene post VPA-treatment (N2A neuroblastoma cells; VPA 1 mM, FIG. 5B)
deoxynucleosides [dNs] | 80 | 20~90 μM | ~80 | – | – | –
CCCC(CCC)C(=O)O [VPA, Valproic acid] | – | – | – | increased expression of luciferase | dose-dependent increase | more than 12 days
